Like-named read-outs stand apart in the source and are kept apart here.
How the values were obtained:
Format in all cases: cell-based
Candida albicans = assay: MIC against Candida albicans; conditions: table prints none
Klebsiella pneumoniae [1] = assay: MIC with/without sub-MIC colistin, Klebsiella pneumoniae
Description: (§1) The MIC of the rhodanines and control antibiotics, in the presence of a sub-inhibitory concentration of colistin or polymixin B nonapeptide (PMBN), against Gram-negative bacteria was evaluated as described before. The antibacterial activity of the rhodanines was further investigated against E. coli SM1411Δ acrAB, a strain that is deficient in the multidrug-resistant AcrAB efflux pump, as described before.

Salmonella Typhimurium [2] = assay: MIC with/without PMBN, Salmonella Typhimurium; conditions: Salmonella Typhimurium ATCC 700720, read-out: MIC
Description: as §1

Pseudomonas aeruginosa [3] = assay: MIC with/without PMBN, Pseudomonas aeruginosa; conditions: Pseudomonas aeruginosa ATCC 9721, read-out: MIC
Description: as §1

Klebsiella pneumoniae [4] = assay: MIC with/without PMBN, Klebsiella pneumoniae
Description: as §1

Acinetobacter baumannii [5] = assay: MIC with/without sub-MIC colistin, Acinetobacter baumannii; conditions: read-out: MIC
Description: as §1

Escherichia coli O157:H7 [6] = assay: MIC with/without PMBN, Escherichia coli O157:H7
Description: as §1

Salmonella Typhimurium [7] = assay: MIC with/without sub-MIC colistin, Salmonella Typhimurium; conditions: Salmonella Typhimurium ATCC 700720, read-out: MIC
Description: as §1

Pseudomonas aeruginosa [8] = assay: MIC with/without sub-MIC colistin, Pseudomonas aeruginosa; conditions: Pseudomonas aeruginosa ATCC 921, read-out: MIC
Description: as §1

Escherichia coli Δ acrAB = assay: MIC against E. coli 1411 and AcrAB efflux pump deficient E. coli SM1411Δ acrAB
Description: as §1

Acinetobacter baumannii [9] = assay: MIC with/without PMBN, Acinetobacter baumannii; conditions: read-out: MIC
Description: as §1

Escherichia coli O157:H7 [10] = assay: MIC with/without sub-MIC colistin, Escherichia coli O157:H7
Description: as §1

Clostridium difficile = assay: MIC against Clostridium difficile, anaerobic broth dilution; conditions: Clostridioides difficile
Description: Clinical isolates of C. difficile were cultured on anaerobic blood agar and incubated anaerobically using container gas pack system at 37° C for 48 hours. The colonies were then suspended in pre-reduced phosphate buffered saline (PBS) and adjusted to 0.5 McFarland standard then diluted 1:300 in pre-reduced Supplemented Brain Heart Infusion broth. The bacterial suspension was then transferred to each well of 96-well plates, the drugs were added to the first row of wells in the required concentrations and serially diluted along the plates. The plates were incubated again anaerobically using container gas pack system at 37° C for 48 hours. The (MIC) recorded was the lowest concentration of the drug showing no visible growth of the bacteria.

[11] = ATCC10231, C. albicans ATCC 10231, unit from abstract, read-out: MIC
[12] = ATCC10231, C. albicans ATCC 10231, unit from abstract, read-out: MIC (second value after the slash)
[13] = C. albicans NR 29434, unit from abstract, read-out: MIC
[14] = C. albicans NR 29434, unit from abstract, read-out: MIC (second value after the slash)
[15] = C. albicans NR 29435, unit from abstract, read-out: MIC
[16] = C. albicans NR 29435, unit from abstract, read-out: MIC (second value after the slash)
[17] = C. albicans NR29437, unit from abstract, read-out: MIC
[18] = C. albicans NR29438, unit from abstract, read-out: MIC
[19] = C. albicans NR29438, unit from abstract, read-out: MIC (second value after the slash)
[20] = C. albicans NR 29446, unit from abstract, read-out: MIC
[21] = C. albicans NR 29448, unit from abstract, read-out: MIC
[22] = C. albicans NR 29449, unit from abstract, read-out: MIC
[23] = C. albicans NR 29449, unit from abstract, read-out: MIC (second value after the slash)
[24] = C. albicans NR 29453, unit from abstract, read-out: MIC
[25] = C. albicans NR 29453, unit from abstract, read-out: MIC (second value after the slash)
[26] = C. albicans NR 294436, unit from abstract, read-out: MIC
[27] = C. albicans NR 294436, unit from abstract, read-out: MIC (second value after the slash)

Measured: MIC

C[C@@H]1[C@H](O)[C@@H](C)/C=C/C=C/C=C/C=C/C=C/C=C/C=C/[C@H](O[C@@H]2O[C@H](C)[C@@H](O)[C@H](N)[C@@H]2O)C[C@@H]2O[C@](O)(C[C@@H](O)C[C@@H](O)[C@H](O)CC[C@@H](O)C[C@@H](O)CC(=O)O[C@H]1C)C[C@H](O)[C@H]2C(=O)O [Amphotericin B, amphotericin B, reference compound]
2 µM: Candida albicans; [13] | Candida albicans; [14] | Candida albicans; [16] | Candida albicans; [17] | Candida albicans; [21] | Candida albicans; C. albicans NR 29448, unit from abstract, read-out: MIC (second value after the slash) | Candida albicans; [23] | Candida albicans; [25] | Candida albicans; [26] | Candida albicans; [27]
4 µM: Candida albicans; [19]
1 µM: Candida albicans; [11] | Candida albicans; [12] | Candida albicans; [15] | Candida albicans; [18] | Candida albicans; [20] | Candida albicans; C. albicans NR 29446, unit from abstract, read-out: MIC (second value after the slash) | Candida albicans; [22] | Candida albicans; [24]

CC[C@H]1OC(=O)[C@H](C)[C@@H](O[C@H]2C[C@@](C)(OC)[C@@H](O)[C@H](C)O2)[C@H](C)[C@@H](O[C@@H]2O[C@H](C)C[C@H](N(C)C)[C@H]2O)[C@](C)(O)C[C@@H](C)C(=O)[C@H](C)[C@@H](O)[C@]1(C)O [Erythromycin, erythromycin, reference compound]
≤0.5 µM: Acinetobacter baumannii [9]; Acinetobacter baumannii ATCC BAA747, PMBN (+) 4 μg/mL | Escherichia coli O157:H7 [10]; Escherichia coli O157:H7 ATCC 35150, colistin (+) […], read-out: MIC | Escherichia coli O157:H7 [10]; Escherichia coli O157:H7 ATCC 700728, colistin (+) […], read-out: MIC
1 µM: Pseudomonas aeruginosa [3]; PMBN (+) 4 μg/mL | Acinetobacter baumannii [5]; Acinetobacter baumannii ATCC BAA747, colistin (+) […]
4 µM: Salmonella Typhimurium [2]; PMBN (+) 4 μg/mL | Acinetobacter baumannii [5]; ATCCBAA747, Acinetobacter baumannii ATCC BAA747, colistin (-) | Escherichia coli O157:H7 [6]; Escherichia coli O157:H7 ATCC 35150, PMBN (+) 4 μg/mL, read-out: MIC | Acinetobacter baumannii [9]; ATCCBAA747, Acinetobacter baumannii ATCC BAA747, PMBN (-)
32 µM: Escherichia coli O157:H7 [6]; Escherichia coli, ATCC700728 | Escherichia coli O157:H7 [10]; Escherichia coli, ATCC35150 | Escherichia coli O157:H7 [10]; Escherichia coli, ATCC700728
128 µM: Escherichia coli O157:H7 [6]; Escherichia coli, ATCC35150
2 µM: Acinetobacter baumannii [5]; Acinetobacter baumannii ATCC BAA19606, colistin (+) […] | Escherichia coli O157:H7 [6]; Escherichia coli O157:H7 ATCC 700728, PMBN (+) 4 μg/mL, read-out: MIC | Escherichia coli Δ acrAB; E.coli 1411 SM (Δ acrAB, AcrAB efflux pump deficient) | Acinetobacter baumannii [9]; Acinetobacter baumannii ATCC BAA19606, PMBN (+) 4 μg/mL
> 64 µM: Escherichia coli Δ acrAB; E.coli 1411
> 128 µM: Klebsiella pneumoniae [1]; Klebsiella pneumoniae, BAA2146 | Klebsiella pneumoniae [4]; Klebsiella pneumoniae, BAA1706 | Klebsiella pneumoniae [4]; Klebsiella pneumoniae, BAA2146
>64 µM: Klebsiella pneumoniae [1]; Klebsiella pneumoniae ATCC BAA 2146, colistin (+) […] | Klebsiella pneumoniae [4]; Klebsiella pneumoniae ATCC BAA 2146, PMBN (+) 4 μg/mL
64 µM: Salmonella Typhimurium [2]; Salmonella enterica, ATCC 700720 / TYPHIMURIUM, PMBN (-) | Pseudomonas aeruginosa [3]; ATCC9721, PMBN (-) | Klebsiella pneumoniae [4]; Klebsiella pneumoniae ATCC BAA 1706, PMBN (+) 4 μg/mL | Salmonella Typhimurium [7]; Salmonella enterica, ATCC 700720 / TYPHIMURIUM, colistin (-) | Pseudomonas aeruginosa [8]; ATCC921, colistin (-)
16 µM: Acinetobacter baumannii [5]; ATCCBAA19606, Acinetobacter baumannii ATCC BAA19606, colistin (-) | Salmonella Typhimurium [7]; colistin (+) […] | Pseudomonas aeruginosa [8]; colistin (+) […] | Acinetobacter baumannii [9]; ATCCBAA19606, Acinetobacter baumannii ATCC BAA19606, PMBN (-)

OC(Cn1cncn1)(Cn1cncn1)c1ccc(F)cc1F [Fluconazole, fluconazole, reference compound]
1 µM: Candida albicans; [12] | Candida albicans; [14] | Candida albicans; [17]
> 64 µM: Candida albicans; [16] | Candida albicans; [19] | Candida albicans; [20] | Candida albicans; [21] | Candida albicans; [23] | Candida albicans; [27]
< 0.5 µM: Candida albicans; [11] | Candida albicans; [13] | Candida albicans; [15] | Candida albicans; [18] | Candida albicans; [22] | Candida albicans; [24] | Candida albicans; [25] | Candida albicans; [26]

Cc1ncc([N+](=O)[O-])n1CCO [Metronidazole, reference compound]
0.25 µM: Clostridium difficile; C. difficile HM-88 | Clostridium difficile; C. difficile Isolate-1 NR-13427
0.5 µM: Clostridium difficile; C. difficile HM-745
0.125 µM: Clostridium difficile; C. difficile HM-746
1 µM: Clostridium difficile; C. difficile Toxigenic Strain P8 NR-32888

— PMC5053523, “In Vitro Antibacterial Activity of Rhodanine Derivatives against Pathogenic Clinical Isolates” (PLoS ONE, 2016)
